One compound from publication PMC3691600, “Conversion of fatty aldehydes into alk (a/e)nes by in vitro reconstituted cyanobacterial aldehyde-deformylating oxygenase with the cognate electron transfer system” (Biotechnology for Biofuels, 2013) can be followed below.

The target in the experiment is FNR (SynPcc7942_0978) (Synechococcus elongatus, UniProt Q31PL1). The experiment in a line: UV/vis absorption spectrum of purified enzyme. The format is binding. The conditions noted are these: noncovalently bound; as purified; flavin identity inferred from spectrum and FNR homology.
Sequence of FNR (SynPcc7942_0978) (Q31PL1 1-403): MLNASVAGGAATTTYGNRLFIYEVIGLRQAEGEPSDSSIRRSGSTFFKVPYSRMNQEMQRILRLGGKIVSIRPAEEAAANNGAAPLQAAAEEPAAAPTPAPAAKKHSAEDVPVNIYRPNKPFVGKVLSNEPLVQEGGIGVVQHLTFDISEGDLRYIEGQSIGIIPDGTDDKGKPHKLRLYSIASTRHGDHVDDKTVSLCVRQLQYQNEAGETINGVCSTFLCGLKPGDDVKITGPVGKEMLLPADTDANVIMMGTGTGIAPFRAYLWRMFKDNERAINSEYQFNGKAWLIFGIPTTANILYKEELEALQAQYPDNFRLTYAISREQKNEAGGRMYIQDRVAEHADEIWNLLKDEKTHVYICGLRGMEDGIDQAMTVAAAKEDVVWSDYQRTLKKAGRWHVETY

Regarding `Cc1cc2nc3c(=O)[nH]c(=O)nc-3n(C[C@H](O)[C@H](O)[C@H](O)COP(=O)(O)OP(=O)(O)OC[C@H]3O[C@@H](n4cnc5c(N)ncnc54)[C@H](O)[C@@H]3O)c2cc1C` [FAD], the “UV/vis absorption spectrum of purified enzyme” value was “demonstrating that FNR is certainly a flavoprotein”.
